Test results reported in US11542280B2, “Substituted pyrimidinium compounds and derivatives for combating animal pests” (BASF SE, priority 2017, dated 2023).

Columns and labels:
Type in all cases: in vivo
Dichromothrips corbetti = experiment: Orchid thrips floral-immersion test; settings: adult thrips, 72 hours after treatment, read-out: mortality in comparison with untreated controls
Protocol: (§1) General conditions: If not otherwise specified, the test solutions are prepared as follows:
(§2) The active compound is dissolved at the desired concentration in a mixture of 1:1 (vol:vol) distilled water: acetone. The test solution is prepared at the day of use.
(§3) Test solutions are prepared in general at different concentrations (wt/vol).
Dichromothrips corbetti adults used for bioassay are obtained from a colony maintained continuously under laboratory conditions. For testing purposes, the test compound is diluted in a 1:1 mixture of acetone:water (vol:vol), plus 0.01% vol/vol Alkamuls® EL 620 surfactant.
Thrips potency of each compound is evaluated by using a floral-immersion technique. Plastic petri dishes are used as test arenas. All petals of individual, intact orchid flowers are dipped into treatment solution and allowed to dry. Treated flowers are placed into individual petri dishes along with about 20 adult thrips. The petri dishes v then covered with lids. All test arenas are held under continuous light and a temperature of about 28° C. for duration of the assay. After 3 days, the numbers of live thrips are counted on each flower, and along inner walls of each petri dish. The percent mortality is recorded 72 hours after treatment.

Nephotettix virescens = experiment: Rice green leafhopper spray test on rice seedlings; settings: adults on sprayed rice seedlings, after 72 hours, read-out: mortality in comparison with untreated controls
Protocol: as §1, §2, §3
Rice seedlings are cleaned and washed 24 hours before spraying. The active compounds are formulated in 50:50 acetone:water (vol:vol), and 0.1% vol/vol surfactant (EL 620) is added. Potted rice seedlings are sprayed with 5 ml test solution, air dried, placed in cages and inoculated with 10 adults. Treated rice plants are kept at about 28-29° C. and relative humidity of about 50-60%. Percent mortality is recorded after 72 hours.

Nilaparvata lugens = experiment: Rice brown plant hopper spray test on rice seedlings; settings: adults on sprayed rice seedlings, after 72 hours, read-out: mortality in comparison with untreated controls
Protocol: as §1, §2, §3
Rice seedlings are cleaned and washed 24 hours before spraying. The active compounds are formulated in 50:50 acetone:water (vol:vol) and 0.1% vol/vol surfactant (EL 620) is added. Potted rice seedlings are sprayed with 5 ml test solution, air dried, placed in cages and inoculated with 10 adults. Treated rice plants are kept at about 28-29° C. and relative humidity of about 50-60%. Percent mortality is recorded after 72 hours.

Measured: mortality at 500 ppm

Cn1c2[n+](c([O-])c(-c3ccccc3)c1=O)C(CC#N)CS2 (stereo not drawn) [Example C1, 3-(cyanomethyl)-8-methyl-7-oxo-6-phenyl-2,3-dihydrothiazolo[3,2-a]pyrimidin-4-ium-5-olate]
> 75%: all assays above
